{"source": "patent US20180036270A1", "about": "“A METHOD OF PROTECTING AGAINST CARBONYL STRESS INDUCED ISCHEMIA-REPERFUSION INJURY IN THE DIABETIC BRAIN VIA ADMINISTRATION OF N-ACETYLCYSTEINE” (Board of Supervisors of Louisiana State University and …, priority 2015, published 2018)", "key": {"[1]": {"tested_on": "brain GSH and cysteine contents", "test": "Brain GSH and cysteine by HPLC", "type": "in vivo, mouse", "excerpt": "(§1) Four-week-old male C57BL/6J mice, weighing 18-20 g, were purchased from Jackson Laboratory. These mice were maintained at the Animal Facility of the Louisiana State University Health Sciences Center—Shreveport. Animal care and use in the experiments follow the guidelines in the Guide for the Care and Use of Laboratory Animals, published by the US National Institutes of Health. Following adaptation for 1 week, the mice were divided randomly into 4 groups: non-treated sham operation group (NT-sham group, n=6), non-treated I/R group (NT-I/R group, n=5), vehicle I/R group (Veh-I/R group, n=24), and streptozotocin I/R group (STZ-I/R group, n=19). […] On day 7, mice whose plasma glucose was more than 300 mg/dl were deemed to be diabetic. From diabetes onset at week 1, a group of diabetic mice were given 0.2 mM NAC in the drinking water for 3 weeks (n=3; a total of 4 weeks diabetes, 3 weeks NAC) or 1 week (n=9; a total of 2 weeks diabetes, 1 week NAC). Veh-I/R mice were injected with citrate buffer for consecutive 5 days, and a group of Veh-treated mice were given 0.2 mM NAC for 2 weeks in the drinking water before the ischemia operation (Veh+NAC group, n=8). Another Veh-treated mice were injected (intraperitoneally, 12 hr interval) with 0.5M BSO 24 h before the ischemia operation and during the 24 h reperfusion period (Veh+BSO group, n=10). All mice were 9 weeks old at sacrifice.\nTissue contents of GSH, cysteine and γGC were determined by high-performance liquid chromatography (HPLC). […] Separation of GSH, cysteine and γGC derivatives whose peaks were detected at 365 nm wavelength was performed on a 250×4.6-mm Alltech Lichrosorb NH2 10 μm anion-exchange column. GSH, cysteine and γGC contents were quantified by comparison to standards derivatized in the same manner. Protein pellets were dissolved in 1 M NaOH for protein quantitation and GSH, cysteine and γGC concentrations were expressed as nanomoles per mg protein."}, "[2]": {"settings": "60 mg/kg/d over 8-75 months in young children; cited from earlier work"}, "[3]": {"tested_on": "MG-protein adducts, occludin, GCLc in diabetic mouse brain", "test": "Western blot of MG-protein adducts, occludin, GCLc and occludin glycation in brain", "type": "in vivo", "settings": "STZ mice, NAC 3 weeks", "method": "Representative immunoblots are shown. The bar graphs show the quantitation of the protein band intensities normalized to β-actin; n=5/grp. […] Brain tissues were homogenized with RIPA lysis buffer containing 50 mM Tris, pH 8.0, 150 mM sodium chloride, 0.5% sodium deoxycholate, 0.1% SDS and protease inhibitor cocktail. Total protein (20 μg) per sample was loaded on 10% SDS-polyacrylamide gels. Electrophoresis was performed at 150V for 1 h, and transfer onto PVDF membranes at 100 V for 1 h. The membranes were blocked in 5% nonfat milk in TBST buffer containing 20 mM Tris, 137 mM NaCl, 0.1% Tween20, pH 7.6 for 40 min at room temperature followed by overnight incubation with either rabbit-anti-mouse occludin polyclonal antibody (1:2000), rabbit-anti-mouse GCGc polyclonal antibody (1:2000) or mouse anti-MG monoclonal antibody (1:2000) at 4° C. on an agitator. The second day, the PVDF membranes were incubated with HRP-conjugated goat-anti-rabbit or sheep-anti-mouse secondary antibody (1:10000) for 2 h at room temperature. Protein expression was detected using enhanced chemiluminescence (BIO-RAD) according to the manufacturer's instructions. The membranes were stripped and reprobed with anti-mouse actin monoclonal antibody (1:5000) to verify equal protein loading."}, "[4]": {"tested_on": "STZ diabetic mice", "test": "Tail bleed time as measure of coagulation", "type": "in vivo, mouse", "settings": "20 week diabetic mice; NAC 2 mM in drinking water for 3 weeks", "method": "Turning to FIG. 24, as a measure of coagulation, tail bleed time was determined in animals that were diabetic for 20 weeks."}, "[5]": {"tested_on": "brain MG contents", "test": "Brain MG by HPLC", "type": "in vivo, mouse", "settings": "STZ diabetic mice, NAC 3 weeks", "method": "Tissue contents of MG were also determined by HPLC. The brain tissues were homogenized in the same manner as that for GSH measurement. Homogenates (581 μl) were incubated with 19 μl of 60% perchloric acid at room temperature for 24 h and then centrifuged at 12000 rpm at 4° C. for 10 min. The supernatants were derivatized with 0.1M of o-phenylenediamine for 24 h to produce 2-methylquinoxaline. On the third day, the supernatants were used for measurements of MG contents. Separation of MG derivatives, whose peak was detected at 315 nm wavelength, was performed on a 250×4.6-mm Chromegabond Ultra C-18 reversed phase HPLC column. The contents were quantified using MG standards derivatized with o-phenylenediamine. MG contents were normalized to protein concentrations and expressed as nanomoles per mg protein."}, "[6]": {"tested_on": "human brain microvascular endothelial cells (IHECs)", "test": "MG-occludin adduct formation in IHECs (Western blot, immunoprecipitation)", "type": "cell-based", "settings": "IHECs in 5 mM glucose exposed to MG for 4 h with 2 mM NAC"}, "[7]": {"test": "Plasma glucose levels in diabetic mice", "type": "in vivo, mouse", "settings": "2 mM NAC for 3 weeks, 4 week diabetic mice", "method": "Plasma levels in diabetic mice were elevated at ˜[…] which was 3-fold higher than controls (˜200 mg/dL). The percent (%) brain infarct area in vehicle- and STZ treated mice is linearly correlated with the plasma glucose level.\nas §1, with “From diabetes onset at week 1, a group of diabetic mice were given 0.2 mM NAC in the drinking water for 3 weeks (n=3; a total of 4 weeks diabetes, 3 weeks NAC) or 1 week (n=9; a total of 2 weeks diabetes, 1 week NAC). Veh-I/R mice were injected with citrate buffer for consecutive 5 days, and a group of Veh-treated mice were given 0.2 mM NAC for 2 weeks in the drinking water before the ischemia operation (Veh+NAC group, n=8).” left out"}}, "note": "“Also recorded” adds a separate entry of the source."}
{"molecule": "CC(=O)N[C@@H](CS)C(=O)O", "note": "[NAC, N-acetylcysteine]", "values": [{"measurement": "brain GSH concentrations", "setting": "[1]; STZ diabetic mice, NAC in drinking water 1 or 3 weeks", "result": "significant increases in tissue GSH levels; also recorded: significantly higher; also recorded: increased"}, {"measurement": "brain cysteine levels", "setting": "[1]; vehicle and STZ diabetic mice given NAC", "result": "significant decrease; also recorded: significantly decreased"}, {"measurement": "tolerability", "setting": "[2]", "result": "well-tolerated"}, {"measurement": "MG-adduct formation in brain", "setting": "[3]", "result": "significantly decreased"}, {"measurement": "occludin glycation in brain (immunoprecipitation)", "setting": "[3]", "result": "significantly decreased"}, {"measurement": "total protein expression of GCLc", "setting": "[3]", "result": "does not alter"}, {"measurement": "total protein expression of occludin", "setting": "[3]", "result": "does not alter"}, {"measurement": "tail bleed time", "setting": "[4]", "result": "prevented this accelerated coagulation; also recorded: reversed"}, {"measurement": "MG-to-GSH ratio", "setting": "[5]", "result": "significantly decreased"}, {"measurement": "brain MG levels", "setting": "[5]", "result": "a trend for decreased MG, but not significant; also recorded: remained high, although trending lower; also recorded: attenuated"}, {"measurement": "occludin glycation (MG-occludin adduct)", "setting": "[6]", "result": "prevent the formation of MG-occludin adducts; also recorded: prevented"}, {"measurement": "plasma glucose levels", "setting": "[7]", "result": "did not alter"}]}
